The record followed here is ChEMBL document CHEMBL1667725, “Tuberatolides, potent FXR antagonists from the Korean marine tunicate Botryllus tuberatus” (J Nat Prod, 2011).

Calls of active or inactive are those of the source. The calls are words filed in the database; no cut-off is given here.

In the first assay the target is T1, Androgen receptor (Homo sapiens) (UniProt P10275).
T1 sequence (whole entry): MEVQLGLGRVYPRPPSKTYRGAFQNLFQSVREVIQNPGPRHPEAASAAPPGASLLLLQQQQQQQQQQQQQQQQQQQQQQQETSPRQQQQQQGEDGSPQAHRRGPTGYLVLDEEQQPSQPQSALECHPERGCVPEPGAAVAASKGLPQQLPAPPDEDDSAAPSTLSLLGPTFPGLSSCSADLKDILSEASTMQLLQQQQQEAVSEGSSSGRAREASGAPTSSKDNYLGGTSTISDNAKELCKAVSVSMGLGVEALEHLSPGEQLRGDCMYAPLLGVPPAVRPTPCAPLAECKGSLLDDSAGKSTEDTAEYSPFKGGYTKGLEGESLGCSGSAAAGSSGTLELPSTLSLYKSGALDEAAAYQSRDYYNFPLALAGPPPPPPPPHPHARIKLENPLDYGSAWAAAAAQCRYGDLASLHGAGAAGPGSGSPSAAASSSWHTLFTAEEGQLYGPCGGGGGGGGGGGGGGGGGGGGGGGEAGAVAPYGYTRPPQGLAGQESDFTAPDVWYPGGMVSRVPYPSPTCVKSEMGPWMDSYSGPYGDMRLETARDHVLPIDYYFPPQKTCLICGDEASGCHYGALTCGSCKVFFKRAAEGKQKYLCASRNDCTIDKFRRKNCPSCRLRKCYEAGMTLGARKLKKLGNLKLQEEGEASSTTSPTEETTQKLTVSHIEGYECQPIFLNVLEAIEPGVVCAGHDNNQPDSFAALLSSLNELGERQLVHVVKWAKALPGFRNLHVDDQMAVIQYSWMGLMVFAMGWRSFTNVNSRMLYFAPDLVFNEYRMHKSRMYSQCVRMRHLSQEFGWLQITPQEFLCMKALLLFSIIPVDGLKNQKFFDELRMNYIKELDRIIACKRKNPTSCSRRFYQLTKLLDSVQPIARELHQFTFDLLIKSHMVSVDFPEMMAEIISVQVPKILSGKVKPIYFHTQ
Kind of assay: Effect on human Gal4-fused AR at 10 uM by luciferase reporter gene assay. On the technique in general: Reporter assays use an easily measured gene product as a stand-in for the process of interest.
Regarding `CC(C)=CCCC1=C[C@@H](C/C(C)=C/CC[C@]2(C)C=Cc3cc(O)cc(C)c3O2)OC1=O` [2'-EPI-TUBERATOLIDE B], the outcome was inactive.
For `CC(C)=CCC/C(=C/CC/C(C)=C/CC[C@]1(C)C=Cc2cc(O)cc(C)c2O1)C(=O)O` [(R)-SARGACHROMENOL], the outcome was inactive.
On the same count and under the same terms, the same measure for `CC(C)=CCC/C(=C/CC/C(C)=C/CC[C@@]1(C)C=Cc2cc(O)cc(C)c2O1)C(=O)O` [(S)-SARGACHROMENOL]: “inactive”.
On the same count and under the same terms, the same measure for `CC(=O)CC/C=C(\C)C[C@@H]1C=C(CCC=C(C)C)C(=O)O1` [TUBERATOLIDE A]: “inactive”.
Still for that read-out and setting: the same measure for `CC(C)=CCCC1=C[C@@H](C/C(C)=C/CC[C@@]2(C)C=Cc3cc(O)cc(C)c3O2)OC1=O` [TUBERATOLIDE B]: “inactive”; for `CC(C)=CCCC1=C[C@@H](C/C(C)=C/CC/C(C)=C/CC2=CC(=O)C=C(C)C2=O)OC1=O` [YEZOQUINOLIDE]: “inactive”.

Another assay addresses T2, Mineralocorticoid receptor (Homo sapiens) (UniProt P08235).
T2 sequence (whole entry): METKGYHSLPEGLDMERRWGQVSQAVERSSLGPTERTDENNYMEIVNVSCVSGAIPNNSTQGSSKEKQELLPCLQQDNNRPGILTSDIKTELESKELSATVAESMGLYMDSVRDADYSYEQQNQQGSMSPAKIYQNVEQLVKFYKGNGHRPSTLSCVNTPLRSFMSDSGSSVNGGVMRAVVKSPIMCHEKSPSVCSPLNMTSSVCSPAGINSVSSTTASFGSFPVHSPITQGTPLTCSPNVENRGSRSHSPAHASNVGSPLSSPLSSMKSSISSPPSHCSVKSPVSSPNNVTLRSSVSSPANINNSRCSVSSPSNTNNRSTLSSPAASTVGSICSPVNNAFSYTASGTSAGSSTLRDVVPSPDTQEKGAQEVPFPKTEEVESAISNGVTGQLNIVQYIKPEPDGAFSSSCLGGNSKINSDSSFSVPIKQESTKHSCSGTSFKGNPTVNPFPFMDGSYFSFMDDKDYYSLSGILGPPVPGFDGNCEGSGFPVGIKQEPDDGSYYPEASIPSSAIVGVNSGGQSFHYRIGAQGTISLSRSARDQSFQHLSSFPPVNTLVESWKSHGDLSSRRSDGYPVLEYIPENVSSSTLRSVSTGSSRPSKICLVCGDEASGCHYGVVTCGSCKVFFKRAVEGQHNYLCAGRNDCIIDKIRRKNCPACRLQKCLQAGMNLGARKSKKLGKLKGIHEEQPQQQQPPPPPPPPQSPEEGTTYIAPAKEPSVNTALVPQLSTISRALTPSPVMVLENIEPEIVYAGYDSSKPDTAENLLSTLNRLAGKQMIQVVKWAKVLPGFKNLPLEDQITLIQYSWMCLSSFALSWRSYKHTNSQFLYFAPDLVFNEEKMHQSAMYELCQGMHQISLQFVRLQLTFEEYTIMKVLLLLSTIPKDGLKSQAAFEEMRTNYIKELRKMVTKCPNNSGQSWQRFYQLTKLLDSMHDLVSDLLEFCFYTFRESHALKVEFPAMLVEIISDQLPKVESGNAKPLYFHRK
Kind of assay: Effect on human Gal4-fused MCR at 10 uM by luciferase reporter gene assay.
With `CC(C)=CCCC1=C[C@@H](C/C(C)=C/CC[C@]2(C)C=Cc3cc(O)cc(C)c3O2)OC1=O` [2'-EPI-TUBERATOLIDE B], the outcome was inactive.
Consider `CC(C)=CCC/C(=C/CC/C(C)=C/CC[C@]1(C)C=Cc2cc(O)cc(C)c2O1)C(=O)O` [(R)-SARGACHROMENOL], for which the result was inactive.
Still for that read-out and setting: the same measure for `CC(C)=CCC/C(=C/CC/C(C)=C/CC[C@@]1(C)C=Cc2cc(O)cc(C)c2O1)C(=O)O` [(S)-SARGACHROMENOL]: “inactive”; for `CC(=O)CC/C=C(\C)C[C@@H]1C=C(CCC=C(C)C)C(=O)O1` [TUBERATOLIDE A]: “inactive”; for `CC(C)=CCCC1=C[C@@H](C/C(C)=C/CC[C@@]2(C)C=Cc3cc(O)cc(C)c3O2)OC1=O` [TUBERATOLIDE B]: “inactive”.
Turning to `CC(C)=CCCC1=C[C@@H](C/C(C)=C/CC/C(C)=C/CC2=CC(=O)C=C(C)C2=O)OC1=O` [YEZOQUINOLIDE], the outcome was inactive.

For the next assay, the target named is T3, Retinoic acid receptor alpha (Homo sapiens) (UniProt P10276).
T3 sequence (whole entry): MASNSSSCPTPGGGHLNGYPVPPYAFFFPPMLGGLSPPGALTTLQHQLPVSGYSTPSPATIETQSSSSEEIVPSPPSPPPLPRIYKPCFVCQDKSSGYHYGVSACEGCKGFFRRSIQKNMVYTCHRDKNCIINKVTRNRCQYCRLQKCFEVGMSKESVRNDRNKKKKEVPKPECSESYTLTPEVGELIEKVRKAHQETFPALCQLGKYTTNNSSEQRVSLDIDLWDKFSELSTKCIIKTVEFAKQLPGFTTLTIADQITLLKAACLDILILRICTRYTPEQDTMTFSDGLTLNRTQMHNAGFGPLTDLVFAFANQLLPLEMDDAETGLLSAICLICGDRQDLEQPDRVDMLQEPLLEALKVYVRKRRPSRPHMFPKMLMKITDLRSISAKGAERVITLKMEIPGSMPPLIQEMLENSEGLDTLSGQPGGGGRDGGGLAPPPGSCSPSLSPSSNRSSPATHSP
Kind of assay: Effect on human Gal4-fused RAR alpha at 10 uM by luciferase reporter gene assay.
In the case of `CC(C)=CCCC1=C[C@@H](C/C(C)=C/CC[C@]2(C)C=Cc3cc(O)cc(C)c3O2)OC1=O` [2'-EPI-TUBERATOLIDE B], the outcome was inactive.
For `CC(C)=CCC/C(=C/CC/C(C)=C/CC[C@]1(C)C=Cc2cc(O)cc(C)c2O1)C(=O)O` [(R)-SARGACHROMENOL], the result was inactive.
Still for that read-out and setting: the same measure for `CC(C)=CCC/C(=C/CC/C(C)=C/CC[C@@]1(C)C=Cc2cc(O)cc(C)c2O1)C(=O)O` [(S)-SARGACHROMENOL]: “inactive”.
Still for that read-out and setting: the same measure for `CC(=O)CC/C=C(\C)C[C@@H]1C=C(CCC=C(C)C)C(=O)O1` [TUBERATOLIDE A]: “inactive”; for `CC(C)=CCCC1=C[C@@H](C/C(C)=C/CC[C@@]2(C)C=Cc3cc(O)cc(C)c3O2)OC1=O` [TUBERATOLIDE B]: “inactive”.
Same read-out and setting: the same measure for `CC(C)=CCCC1=C[C@@H](C/C(C)=C/CC/C(C)=C/CC2=CC(=O)C=C(C)C2=O)OC1=O` [YEZOQUINOLIDE]: “inactive”.

The target of a further assay is T4, Estrogen receptor (Homo sapiens) (UniProt P03372).
T4 sequence (whole entry): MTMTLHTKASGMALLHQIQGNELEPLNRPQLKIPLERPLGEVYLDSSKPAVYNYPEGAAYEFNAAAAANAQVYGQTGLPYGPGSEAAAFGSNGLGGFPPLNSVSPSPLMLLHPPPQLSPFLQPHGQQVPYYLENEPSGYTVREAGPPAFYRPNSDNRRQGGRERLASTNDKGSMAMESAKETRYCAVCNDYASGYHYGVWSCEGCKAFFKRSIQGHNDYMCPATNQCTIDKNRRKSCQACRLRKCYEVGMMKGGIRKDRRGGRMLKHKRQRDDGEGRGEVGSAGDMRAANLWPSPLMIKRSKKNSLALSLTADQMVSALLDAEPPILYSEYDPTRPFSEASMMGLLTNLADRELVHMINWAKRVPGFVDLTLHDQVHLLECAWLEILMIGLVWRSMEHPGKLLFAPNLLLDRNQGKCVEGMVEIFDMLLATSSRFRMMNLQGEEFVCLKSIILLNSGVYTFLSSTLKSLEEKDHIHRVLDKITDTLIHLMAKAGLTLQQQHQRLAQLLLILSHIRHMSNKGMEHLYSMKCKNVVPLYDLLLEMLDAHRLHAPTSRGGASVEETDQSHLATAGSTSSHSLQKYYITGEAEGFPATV
Kind of assay: Effect on human Gal4-fused ERalpha at 10 uM by luciferase reporter gene assay.
For `CC(C)=CCCC1=C[C@@H](C/C(C)=C/CC[C@]2(C)C=Cc3cc(O)cc(C)c3O2)OC1=O` [2'-EPI-TUBERATOLIDE B], the result was inactive.
Same read-out and setting: the same measure for `CC(C)=CCC/C(=C/CC/C(C)=C/CC[C@]1(C)C=Cc2cc(O)cc(C)c2O1)C(=O)O` [(R)-SARGACHROMENOL]: “inactive”; for `CC(C)=CCC/C(=C/CC/C(C)=C/CC[C@@]1(C)C=Cc2cc(O)cc(C)c2O1)C(=O)O` [(S)-SARGACHROMENOL]: “inactive”.
Still for that read-out and setting: the same measure for `CC(=O)CC/C=C(\C)C[C@@H]1C=C(CCC=C(C)C)C(=O)O1` [TUBERATOLIDE A]: “inactive”.
On the same count and under the same terms, the same measure for `CC(C)=CCCC1=C[C@@H](C/C(C)=C/CC[C@@]2(C)C=Cc3cc(O)cc(C)c3O2)OC1=O` [TUBERATOLIDE B]: “inactive”; for `CC(C)=CCCC1=C[C@@H](C/C(C)=C/CC/C(C)=C/CC2=CC(=O)C=C(C)C2=O)OC1=O` [YEZOQUINOLIDE]: “inactive”.
